Assay results reported in patent US9187426B2, “Organic compounds” (Novartis AG, priority 2008, dated 2015).

SMILES	melting point
O=C(NCc1ccc(F)cc1)c1ccnc(N2CCN(Cc3ccc(F)c(F)c3)C2=O)c1 [Example 15.20, 2-(3-(3,4-difluorobenzyl)-2-oxoimidazolidin-1-yl)-N-(4-fluorobenzyl)isonicotinamide]	165 to 167 °C
O=C(NCc1ccc(F)cc1)c1ccnc(N2CCN(C(F)(F)c3ccc(C(F)F)cc3)C2=O)c1 [Example 15.21, 2-(3-((4-(difluoromethyl)phenyl)difluoromethyl)-2-oxoimidazolidin-1-yl)-N-(4-fluorobenzyl)isonicotinamide]	173 to 175 °C
O=C(NCc1ccc(F)cc1)c1ccnc(N2CCN(Cc3ccc(F)cc3F)C2=O)c1 [Example 15.22, 2-(3-(2,4-difluorobenzyl)-2-oxoimidazolidin-1-yl)-N-(4-fluorobenzyl)isonicotinamide]	171 to 173 °C
O=C(NCc1ccccc1)c1ccnc(-n2cnn(Cc3ccc(F)cc3)c2=O)c1 [Example 16, N-benzyl-2-(1-(4-fluorobenzyl)-5-oxo-1H-1,2,4-triazol-4(5H)-yl)isonicotinamide]	173 to 175 °C
O=C(NCc1ccccc1)c1ccnc(-n2ccc(-c3ccccc3)cc2=O)c1 [Example 17, N-benzyl-2-(2-oxo-4-phenylpyridin-1(2H)-yl)isonicotinamide]	162 to 163 °C
O=C(NCc1ccccc1)c1ccnc(N2CCC(c3ccccc3)CC2=O)c1 (stereo not drawn) [Example 18, 2-oxo-4-phenyl-3,4,5,6-tetrahydro-2H-[1,2′]bipyridinyl-4′-carboxylic acid benzylamide]	55 to 60 °C
O=C(NCc1ccccc1)c1ccnc(-n2ccc(OCc3ccccc3)cc2=O)c1 [Example 19, 4-benzyloxy-2-oxo-2H-[1,2′]bipyridinyl-4′-carboxylic acid benzylamide]	158 to 161 °C
O=C(NCc1ccccc1)c1ccnc(-n2ccc(O)cc2=O)c1 [Example 20, 4-hydroxy-2-oxo-2H-[1,2′]bipyridinyl-4′-carboxylic acid benzylamide]	102 to 105 °C
NC(=O)c1ccnc(N2CCN(Cc3ccc(F)cc3)C2=O)c1 [Example 22, 2-(3-(4-fluorobenzyl)-2-oxoimidazolidin-1-yl)isonicotinamide]	206 to 208 °C
Cc1nnc(CNC(=O)c2ccnc(N3CCN(Cc4ccc(F)cc4)C3=O)c2)o1 [Example 26.1, 2-(3-(4-Fluorobenzyl)-2-oxoimidazolidin-1-yl)-N-((5-methyl-1,3,4-oxadiazol-2-yl)methyl)isonicotinamide]	136 to 138 °C
O=C(NCc1ccc(F)cc1)c1ccnc(N2CCN(Cc3ccc(C(F)(F)F)cc3)C2=O)c1 [Example 26.2, N-(4-Fluorobenzyl)-2-(2-oxo-3-(4-(trifluoromethyl)benzyl)imidazolidin-1-yl)isonicotinamide]	168 to 170 °C
O=C(NCc1nnco1)c1ccnc(N2CCN(Cc3ccc(F)cc3)C2=O)c1 [Example 26.4, N-((1,3,4-Oxadiazol-2-yl)methyl)-2-(3-(4-fluorobenzyl)-2-oxoimidazolidin-1-yl)isonicotinamide]	211 to 213 °C
O=C(NCc1ccccc1)c1ccnc(N2CCN(Cc3ccc4nonc4c3)C2=O)c1 [Example 26.5, 2-(3-(Benzo[c][1,2,5]-oxadiazol-5-ylmethyl)-2-oxoimidazolidin-1-yl)-N-benzylisonicotinamide]	165 to 167 °C
CC(NC(=O)c1ccnc(N2CCN(Cc3ccc(F)cc3)C2=O)c1)c1ccccc1 (stereo not drawn) [Example 26.6, 2-(3-(4-Fluorobenzyl)-2-oxoimidazolidin-1-yl)-N-(1-phenylethyl)-isonicotinamide]	115 to 117 °C
Cc1nc(CNC(=O)c2ccnc(N3CCN(Cc4ccc(F)cc4)C3=O)c2)no1 [Example 26.7, 2-(3-(4-Fluorobenzyl)-2-oxoimidazolidin-1-yl)-N-((5-methyl-1,2,4-oxadiazol-3-yl)methyl)-isonicotinamide]	163 to 165 °C
O=C(NCc1ccccn1)c1cc(N2CCN(Cc3ccc(F)cc3)C2=O)nc2ccccc12 [Example 26.8, 2-(3-(4-Fluorobenzyl)-2-oxoimidazolidin-1-yl)-N-(pyridin-2-ylmethyl)quinoline-4-carboxamide]	161 to 163 °C
O=C(NCc1cc(Br)no1)c1ccnc(N2CCN(Cc3ccc(F)cc3)C2=O)c1 [Example 26.9, N-((3-Bromoisoxazol-5-yl)methyl)-2-(3-(4-fluorobenzyl)-2-oxoimidazolidin-1-yl)isonicotinamide]	178 to 180 °C
O=C(NCc1cc(-c2ccccc2)on1)c1ccnc(N2CCN(Cc3ccc(F)cc3)C2=O)c1 [Example 26.10, 2-(3-(4-Fluorobenzyl)-2-oxoimidazolidin-1-yl)-N-((5-phenylisoxazol-3-yl)methyl)-isonicotinamide]	199 to 201 °C
O=C(NCc1cnc(Cl)s1)c1ccnc(N2CCN(Cc3ccc(F)cc3)C2=O)c1 [Example 26.11, N-((2-Chlorothiazol-5-yl)methyl)-2-(3-(4-fluorobenzyl)-2-oxoimidazolidin-1-yl)isonicotinamide]	185 to 186 °C
O=C(NCc1cncs1)c1ccnc(N2CCN(Cc3ccc(OC(F)(F)F)cc3)C2=O)c1 [Example 26.14, 2-(2-Oxo-3-(4-(trifluoromethoxy)benzyl)imidazolidin-1-yl)-N-(thiazol-5-ylmethyl)-isonicotinamide]	189 to 191 °C
O=C(NCc1cccnc1)c1ccnc(N2CCN(Cc3ccc(OC(F)(F)F)cc3)C2=O)c1 [Example 26.16, 2-(2-Oxo-3-(4-(trifluoromethoxy)-benzyl)imidazolidin-1-yl)-N-(pyridin-3-ylmethyl)-isonicotinamide]	185 to 187 °C
O=C(NCc1nccs1)c1ccnc(N2CCN(Cc3ccc(OC(F)(F)F)cc3)C2=O)c1 [Example 26.17, 2-(2-Oxo-3-(4-(trifluoromethoxy)benzyl)imidazolidin-1-yl)-N-(thiazol-2-ylmethyl)-isonicotinamide]	97 to 99 °C
O=C(NCc1cnc(Cl)s1)c1ccnc(N2CCN(Cc3ccc(C(F)(F)F)cc3)C2=O)c1 [Example 26.20, N-((2-Chlorothiazol-5-yl)methyl)-2-(2-oxo-3-(4-(trifluoromethyl)-benzyl)imidazolidin-1-yl)isonicotinamide]	209 to 211 °C
O=C(NCc1nccs1)c1ccnc(-n2cnn(Cc3ccc(F)cc3)c2=O)c1 [Example 26.21, 2-(1-(4-Fluorobenzyl)-5-oxo-1H-1,2,4-triazol-4(5H)-yl)-N-(thiazol-2-ylmethyl)-isonicotinamide]	170 to 172 °C
O=C(NCc1cncs1)c1ccnc(N2CCN(Cc3ccc(F)c(F)c3)C2=O)c1 [Example 26.24, 2-(3-(3,4-Difluorobenzyl)-2-oxoimidazolidin-1-yl)-N-(thiazol-5-ylmethyl)-isonicotinamide]	111 to 113 °C
O=C(NCc1nccs1)c1ccnc(N2CCN(Cc3ccc(F)c(F)c3)C2=O)c1 [Example 26.25, 2-(3-(3,4-Difluorobenzyl)-2-oxoimidazolidin-1-yl)-N-(thiazol-2-ylmethyl)-isonicotinamide]	105 to 107 °C
O=C(NCc1cncs1)c1ccnc(-n2cnn(Cc3ccc(F)cc3)c2=O)c1 [Example 26.26, 2-(1-(4-Fluorobenzyl)-5-oxo-1H-1,2,4-triazol-4(5H)-yl)-N-(thiazol-5-ylmethyl)-isonicotinamide]	181 to 183 °C
O=C(NCc1nccs1)c1ccnc(-n2cnn(Cc3ccc(F)c(F)c3)c2=O)c1 [Example 26.28, 2-(1-(3,4-Difluorobenzyl)-5-oxo-1H-1,2,4-triazol-4(5H)-yl)-N-(thiazol-2-ylmethyl)-isonicotinamide]	161 to 163 °C
O=C(NCc1cnc(Cl)s1)c1ccnc(N2CCN(Cc3ccc(F)c(F)c3)C2=O)c1 [Example 26.33, N-((2-Chlorothiazol-5-yl)methyl)-2-(3-(3,4-difluorobenzyl)-2-oxoimidazolidin-1-yl)isonicotinamide]	161 to 163 °C
O=C(NCc1cnc(Cl)s1)c1ccnc(N2CCN(Cc3ccc(OC(F)(F)F)cc3)C2=O)c1 [Example 26.34, N-((2-Chlorothiazol-5-yl)methyl)-2-(2-oxo-3-(4-(trifluoromethoxy)-benzyl)imidazolidin-1-yl)isonicotinamide]	184 to 186 °C
